In patent US12466804B2 (BRISTOL-MYERS SQUIBB COMPANY, priority 2019, dated 2025):

Target: T1, human LPA1 (Homo sapiens, UniProt Q92633)
T1 construct: expressed in transfected cells; host or cells: Chinese hamster ovary (CHO) cells
Test: LPA1 functional antagonist assay (LPA-induced calcium flux)
Format: cell-based
Settings: CHO cells overexpressing human LPA1; calcium flux induced by 10 nM LPA; read-out: hLPA1 IC50
Experimental: The effectiveness of compounds of the present invention as LPA1 inhibitors can be determined in an LPA1 functional antagonist assay as follows:
The cells were then equilibrated to room temperature for 30 minutes before the assay. […] IC50 values were determined by fitting data to a 4-parameter logistic equation (GraphPad Prism, San Diego CA).

T1 sequence (Q92633 whole entry): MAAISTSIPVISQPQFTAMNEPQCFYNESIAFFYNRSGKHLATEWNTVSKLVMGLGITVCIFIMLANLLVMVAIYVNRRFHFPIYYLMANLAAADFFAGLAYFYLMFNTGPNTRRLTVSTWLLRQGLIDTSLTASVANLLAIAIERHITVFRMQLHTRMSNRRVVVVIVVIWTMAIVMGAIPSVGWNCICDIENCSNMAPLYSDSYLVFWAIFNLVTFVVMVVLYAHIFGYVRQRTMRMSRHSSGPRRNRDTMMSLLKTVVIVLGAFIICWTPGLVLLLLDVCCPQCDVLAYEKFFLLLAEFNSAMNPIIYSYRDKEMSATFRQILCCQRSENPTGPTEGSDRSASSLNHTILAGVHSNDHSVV

| IC50 [nM] | SMILES |
| --- | --- |
| 187 | Cc1noc(-c2ccc(OC[C@@H]3CC[C@H]3C(=O)O)cc2)c1COC(=O)N(C)C1CCCC1 (racemic) [Example 1, (±)-(1R,2R)-2-((4-(4-(((cyclopentyl(methyl)carbamoyl)oxy)methyl)-3-methylisoxazol-5-yl)phenoxy)methyl)cyclobutane-1-carboxylic acid] |
| 15.4 | Cc1noc(-c2ccc(OC[C@@H]3CC[C@H]3C(=O)O)cn2)c1CNc1nccc(-c2ccccn2)n1 (racemic) [Example 2, (±)-(1R,2R)-2-(((6-(3-methyl-4-(((4-(pyridin-2-yl)pyrimidin-2-yl)amino)methyl)isoxazol-5-yl)pyridin-3-yl)oxy)methyl)cyclobutane-1-carboxylic acid] |
| 18 | Cc1nc(-c2onc(C)c2CNc2nccc(-c3ccccn3)n2)ccc1OC[C@@H]1CC[C@H]1C(=O)O (racemic) [Example 5, (±)-(1R,2R)-2-(((2-methyl-6-(3-methyl-4-(((4-(pyridin-2-yl)pyrimidin-2-yl)amino)methyl)isoxazol-5-yl)pyridin-3-yl)oxy)methyl)cyclobutane-1-carboxylic acid] |
| 27 | Cc1nc(-c2nnn(C)c2COC(=O)N(C)CC2CCC2)ccc1OC[C@@H]1CC[C@H]1C(=O)O (racemic) [Example 6, (±)-(1R,2R)-2-(((6-(5-((((cyclobutylmethyl)(methyl)carbamoyl)oxy)methyl)-1-methyl-1H-1,2,3-triazol-4-yl)-2-methylpyridin-3-yl)oxy)methyl)cyclobutane-1-carboxylic acid] |
| 42 | CCc1cc(OCc2c(-c3ccc(OC[C@@H]4CC[C@H]4C(=O)O)c(C)n3)nnn2C)ncn1 (racemic) [Example 11, (±)-(1R,2R)-2-(((6-(5-(((6-ethylpyrimidin-4-yl)oxy)methyl)-1-methyl-1H-1,2,3-triazol-4-yl)-2-methylpyridin-3-yl)oxy)methyl)cyclobutane-1-carboxylic acid] |
| 382 | CCc1ccnc(OCc2c(-c3ccc(OC[C@@H]4CC[C@H]4C(=O)O)c(C)n3)nnn2C)n1 (racemic) [Example 14, (±)-(1R,2R)-2-(((6-(5-(((4-ethylpyrimidin-2-yl)oxy)methyl)-1-methyl-1H-1,2,3-triazol-4-yl)-2-methylpyridin-3-yl)oxy)methyl)cyclobutane-1-carboxylic acid] |
| 128 | Cc1nc(-c2nnn(C)c2COc2noc(C3CC3)n2)ccc1OC[C@@H]1CC[C@H]1C(=O)O (racemic) [Example 15, (±)-(1R,2R)-2-(((6-(5-(((5-cyclopropyl-1,2,4-oxadiazol-3-yl)oxy)methyl)-1-methyl-1H-1,2,3-triazol-4-yl)-2-methylpyridin-3-yl)oxy)methyl)cyclobutane-1-carboxylic acid] |
| 25 | Cc1nc(-c2nnn(C)c2COc2noc(C(C)C)n2)ccc1OC[C@@H]1CC[C@H]1C(=O)O (racemic) [Example 16, (±)-(1R,2R)-2-(((6-(5-(((5-isopropyl-1,2,4-oxadiazol-3-yl)oxy)methyl)-1-methyl-1H-1,2,3-triazol-4-yl)-2-methylpyridin-3-yl)oxy)methyl)cyclobutane-1-carboxylic acid] |
| 66 | Cc1nc(-c2nnn(C)c2COc2cc(OC3CC3)ncn2)ccc1OC[C@@H]1CC[C@H]1C(=O)O (racemic) [Example 17, (±)-(1R,2R)-2-(((6-(5-(((6-cyclopropoxy-pyrimidin-4-yl)oxy)methyl)-1-methyl-1H-1,2,3-triazol-4-yl)-2-methylpyridin-3-yl)oxy)methyl)cyclobutane-1-carboxylic acid] |
| 83 | Cc1nc(-c2nnn(C)c2COc2cc(C3CC3)ncn2)ccc1OC[C@@H]1CC[C@H]1C(=O)O (racemic) [Example 18, (±)-(1R,2R)-2-(((6-(5-(((6-cyclopropyl-pyrimidin-4-yl)oxy)methyl)-1-methyl-1H-1,2,3-triazol-4-yl)-2-methylpyridin-3-yl)oxy)methyl)cyclobutane-1-carboxylic acid] |
